In patent US20240300881A1, “PROCESS FOR PREPARATION OF LITHIUM L-THREONATE AND USE THEREOF” (XIXIOXOME BIOTHERAPEUTICS, priority 2023, published 2024):

What was measured:
[1] = test system: schizoaffective disorder; conditions: cited from earlier work
[2] = precipitation of lithium hydroxide from solution at different pH; assay type: physicochemical
Source text: L-threonic acid was selected as the ligand for lithium ion, because L-threonic acid can accelerate the absorption of the ion.

[3] = stability in high thermal condition
[4] = test system: AAD; conditions: low-dose; cited from earlier work

NC(=O)N1c2ccccc2C=Cc2ccccc21 [carbamazepine]
prophylactic efficacy in maintenance treatment [1]: equipotent alternatives

O=C([O-])[C@H](O)[C@@H](O)CO.[Li+] [lithium L-threonate]
precipitate of lithium hydroxide ([2]; basic condition): no precipitate of lithium hydroxide
precipitate of lithium hydroxide ([2]; small intestine (pH˜7)): no precipitate of lithium hydroxide
dissolution in alcohol and ether (alcohol and ether): no dissolution in alcohol and ether
dissolution in water (water): dissolution in water
temperature of decomposition [3]: > 300 °C

O=C([O-])[O-].[Li+].[Li+] [lithium carbonate]
efficacy in treating agitation [4]: not efficacious
global clinical improvement [4]: associated with global clinical improvement
